Data published in patent US8691874B2, “Treatment of ophthalmic disorders using urea” (Kato Pharmaceuticals, Inc., priority 2000, dated 2014).
Values joined by “and” are separate entries in the source; they are usually repeats but may differ in a detail not shown here. Identical values can stand only once. Like-named read-outs stand apart in the source and are kept apart here.

Legend:
[1] = system: human patients with single or multiple retinal tears; assay: Intravitreal urea 3 days before pneumatic Retinopexy in patients with retinal tears (Example I); type: in vivo
Description: All patients received pneumatic Retinopexy treatment 3 days after intravitreal injection of 1.5 mg of urea in 50 μl of aqueous solution prepared according to the formulation set forth in Table 11 above. […] Within 3-7 days after urea injection, 11/12 patients had developed PVD, only 1/12 patients had not developed PVD. Within 90 days of the urea injection that one patient also developed PVD.
Within 3 days of treatment 9/12 patients had complete retinal reattachment and macular attachment, and within 7 days all 12 patients had complete retinal reattachment and macular attachment.
(Tornambe, P. E. et. al. Opthalmology, 1989; 96: 772-783).

[2] = system: stage 3 idiopathic macular hole patient; assay: Intravitreal urea followed by C3F8 gas in a patient with idiopathic macular hole (Example II); type: in vivo, human; conditions: for visual acuity: baseline 20/400; for size of the macular hole: baseline 450 μm
Description: The macular defect was classified as a stage 3 macular hole, and the patient's visual acuity was recorded at 20/400 at a baseline time point prior to urea treatment. […] Seven days after the intravitreal urea injection the patient was administered an intravitreal injection of 0.3 ml of expandable gas (C3F8).
One week after administration of the gas, the size of the macular hole had decreased from 450 μm to a smaller size of 200 μm and the patient's vision had improved from a baseline visual acuity of 20/400 to 20/80. Two weeks post treatment the size of the macular hole had decreased from 450 μm to a smaller size of 90 μm and the patient's vision had improved from a baseline visual Acuity of 20/400 to 20/70. Four weeks post treatment the size of the macular hole had decreased from 450 μm to a smaller size of 60 μm and the patient's vision had improved from a baseline visual acuity of 20/400 to 20/60.

[3] = system: human patients with diabetes-related nonclearing vitreous hemorrhage; assay: Treatment of vitreous hemorrhage (Example IV); type: in vivo
Description: The formulations and treatments disclosed herein are also effective to treat vitreous hemorrhage. In this example, seven human patients were treated for diabetes-related nonclearing vitreous hemorrhage. Each patient received a single intravitreal injection of 100 μl of a formulation containing urea. The formulation used in this example contained 6% urea, 0.9% sodium chloride, and sterile water for injection (qs 100%).

[4] = system: human patients requiring pars plana vitrectomy; assay: Intravitreal urea as adjunct to vitrectomy (Example V); type: in vivo
Description: In this example, five human patients requiring pars plana vitrectomy for various indications were treated one week prior to vitrectomy with a single intravitreal injection of 100 μl of a urea in aqueous solution. The formulation contained 6% urea, 0.9% sodium chloride, and sterile water for injection (qs 100%). All patients underwent routine vitrectomies 8 to 10 days after the urea injection. The minimum waiting time between the urea injection and the vitrectomy procedure is about 1 day to 3 days.
No vitrectomy cutter was used.

[5] = system: patients with nonproliferative diabetic retinopathy; assay: Treatment of nonproliferative diabetic retinopathy (Example VI); type: in vivo, human
Description: Sixty-nine patients with nonproliferative diabetic retinopathy were each administered a single intravitreal injection of 50 μl of a urea formulation containing 3% urea, 0.9% sodium chloride, and sterile water for injection.
The vitreous liquefaction and vitreous collapse in nonproliferative diabetic retinopathy patients would inhibit the growth and proliferation of the blood vessels, and thus inhibit the progression of diabetic retinopathy. All 69 (of the) patients were followed for six months following the procedure.

[6] = system: human patients with retinitis pigmentosa; assay: Double masked placebo controlled dose escalation study in retinitis pigmentosa (Example VII); type: in vivo
Description: A double masked placebo controlled, randomized, dose escalation study was done in 32 human patients with retinitis pigmentosa. All patients were treated with a single intravitreal injection of 50 μl of a urea-containing formulation. Three groups of patients received different concentrations of urea. One group received a formulation containing 1.5% urea, 0.9% sodium chloride, and sterile water for injection. A second group received an identical formulation except the formulation contained 3.0% urea. A third group received an identical formulation except the formulation contained 6.0% urea. A placebo group received 50 μl of 0.9% sodium chloride.
Forty-seven percent of the patient reported an increase of at least 3 lines of best corrected visual acuity measured by ETDRS charts, whereas, only 14% of the placebo patients reported an increase of at least 3 lines of best corrected visual acuity measured by ETDRS charts.
There was no dramatic increase in the visual field of the placebo control patients.

[7] = system: human patients with optic nerve damage caused by trauma and/or glaucoma; assay: Double masked placebo controlled dose escalation study in optic nerve damage (Example VIII); type: in vivo
Description: In accordance with the present invention, urea, thiourea, guanidine and possibly the other compounds of General Formula I above are effective to treat neuropathies (e.g., disorders or damage to nerves). In this example, 33 non sighted patients with optic nerve damage caused by trauma and/or glaucoma, with visual acuity of light perception or no light perception were administered a urea-containing formulation, as disclosed herein. The study was a double masked placebo controlled, randomized, dose escalation study conducted with 33 human patients with optic nerve damage. Patients were randomized into 5 groups, Group 1 of 5 patients, Group 2 of 4 patients, Group 3 of 8 patients, Group 4 of 8 patients and Group 5 of 8 patients. Each patient received a single intravitreal injection of 50 μl of an aqueous treatment solution, as follows:
In Six patients the vision improved from No light perception to light perception, in 2 patients the vision improved from light perception to count fingers at 12 inches, in 2 patients the vision improved from no light perception to 20/400 and 20/800 vision and in 2 patients the vision improved from light perception to 20/600 and 20/800 vision. No patients in the placebo group reported any improvement in best corrected visual acuity as measured by ETDRS charts.

[8] = system: patients with optic nerve damage related to optic nerve tumors; assay: Treatment of optic nerve damage related to optic nerve tumors (Example VIII); type: in vivo, human
Description: In another study, three patients with long standing (6 months or longer) optic nerve damage related to optic nerve tumors were treated with a single intravitreal injection of 100 μl of a 6% urea containing formulation. All three patient treated reported a significant improvement in visual acuity after treatment. The patients' visual acuity improved from an average of Count Fingers at 12 inches to 20/200.

[9] = system: vitreous body of patients; assay: Injection of urea into the vitreous, slit lamp biomicroscopy in patients; type: in vivo, human
Source text: (§1) In addition, disinsertion of the posterior vitreous has been observed in patients by the use of slit lamp biomicroscopy and in rabbits by specialized histological techniques after urea treatment.

[10] = system: posterior vitreous of rabbits; assay: Injection of urea into the vitreous, specialized histological techniques in rabbits; type: in vivo; conditions: after urea treatment
Source text: as §1

[11] = 10% water solution; cited from earlier work
[12] = cited from earlier work
[13] = cited from earlier work; remark: listed apart in the source
[14] = one week after administration of the gas

## NC(N)=O [urea]
[1]; 1.5 mg urea in 50 μl intravitreal, 12 patients
  adverse effects of the intravitreal injection, ophthalmoscopic and biomicroscopic examination: no adverse effects
[1]; 6 months after Retinopexy
  average improvement of visual acuity per patient: 4.2 lines and 21 letters
[1]; 6 months post Retinopexy
  patients with improvement of more than 2 lines of visual acuity (11 letters): 64%
[1]; 90 days follow up
  occurrence of new retinal tears with associated retinal detachment: none of the patients
[1]; after urea injection, 1.5 mg in 50 μl
  time by which the one remaining patient developed PVD: ≤ 90 days
[1]; urea 3 days prior to pneumatic Retinopexy, time point not given
  patients with improvement of more than 2 lines of visual acuity (11 letters): 64%
[1]; within 3-7 days after urea injection, 1.5 mg in 50 μl
  patients who had developed PVD: 11/12
[1]; within 3 days of treatment
  patients with complete retinal reattachment and macular attachment: 9/12
[1]; within 7 days
  patients with complete retinal reattachment and macular attachment: 12 patients
[2]; 1.5 mg urea in 50 μl
  adverse effects of the intravitreal injection, ophthalmoscopic and biomicroscopic examination: no adverse effects
[2]; four weeks post treatment
  visual acuity: 20/60
  size of the macular hole: 60 μm
[2]; [14]
  visual acuity: 20/80
  size of the macular hole: 200 μm
[2]; single intravitreal 1.5 mg urea in 50 μl, Table III formulation
  time to complete Posterior Vitreous Detachment (PVD): ≤ 7 days
[2]; two weeks post treatment
  visual acuity: 20/70
  size of the macular hole: 90 μm
[3]; 100 μl of 6% urea
  rate of hemorrhagic blood clearance compared with normal clearance rates in clinical practice: significantly accelerated
[3]; single intravitreal 100 μl of 6% urea, 0.9% sodium chloride, seven patients
  patients with clearance of vitreous hemorrhage sufficient to treat the retina with photocoagulation: All seven
[4]; 100 μl of 6% urea one week prior to vitrectomy
  decrease in surgical time relative to patients who did not receive urea: 70%
[4]; by one week after single intravitreal 100 μl of 6% urea, five patients
  vitreous liquefaction and collapse: complete vitreous liquefaction and collapse
[5]; 50 μl of 3% urea
  time to complete vitreous liquefaction and collapse after administration: 2-4 weeks
[5]; single intravitreal 50 μl of 3% urea, 0.9% sodium chloride
  patients with complete vitreous liquefaction and collapse: 69 patients
[6]; single intravitreal 50 μl of 1.5%, 3.0% or 6.0% urea, groups pooled
  patients with increase of at least 3 lines of best corrected visual acuity measured by ETDRS charts: Forty-seven
[6]; urea-treated patients
  average improvement in the patient's visual field: 10 degrees
[7]; 50 μl of 0.2-6.0% urea
  patients whose vision improved from No light perception to light perception: Six
  patients whose vision improved from light perception to 20/600 and 20/800 vision: 2 patients
  patients whose vision improved from light perception to count fingers at 12 inches: 2 patients
  patients whose vision improved from no light perception to 20/400 and 20/800 vision: 2 patients
[7]; single intravitreal 50 μl of 0.2%, 1.5%, 3.0% or 6.0% urea
  patients with increase of best corrected visual acuity measured by ETDRS charts: Forty-three
[8]; from an average of Count Fingers at 12 inches, 100 μl of 6% urea
  average visual acuity after treatment: 20/200
[8]; single intravitreal 100 μl of 6% urea, three patients
  patients reporting a significant improvement in visual acuity after treatment: All three
[9]; after injection of urea into the vitreous
  liquefaction of the vitreous body and breakdown of hyaluronic acid of the vitreous: within several days
[9]; patients, slit lamp biomicroscopy, after urea treatment
  disinsertion of the posterior vitreous: observed
[10]
  disinsertion of the posterior vitreous: observed
[11]
  pH: 7.2
[12]; in chloroform or ether
  solubility: practically insoluble
[12]; in water, ethanol, methanol and glycerol
  solubility: very soluble
[13]; aqueous urea solutions, develop an odor of ammonia
  stability: gradually degrade
[13]; stored under dry conditions at room temperature
  stability: stable
